From PubChem BioAssay (NCI) come the findings set out here.

Common to all, as to assay: inhibition of tumour cell growth, NCI panel, 48 h
Experiment [1] concerns HCT-116 colon.
Experiment [2] relates to HOP-92 NSCLC.
For experiment [3], the system named is OVCAR-8 ovarian.
For experiment [4], the system named is SF-295 CNS.
Experiment [5] concerns SK-OV-3 ovarian.
For experiment [6], the system named is SN12C renal.
The subject of experiment [7] is SNB-75 CNS.
Experiment [8] concerns UACC-257 melanoma.
Experiment [9] relates to LXFL 529 NSCLC.
For experiment [10], the system named is M19-MEL melanoma.

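Values below derive from 48-hour exposures of cells grown in 96-well plates, with endpoints linearly interpolated between the two concentrations bracketing the appropriate inhibition level. GI50 is the concentration that inhibits growth by half. TGI is the concentration that stops growth completely.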

`CCCC1C2=C(C(=O)OC2=O)C2C(CC)CC3=C(C(=O)OC3=O)C12` (stereo not given): the TGI in experiment [1], in experiment [2], in experiment [3], in experiment [4], in experiment [5] and in experiment [6] was above 100 µM throughout. Besides, the TGI in [7] and in [8] was above 100 µM each time.
As for `COc1ccc(/C=C2\CC(C)CC3C2=NN(C(C)=O)C3c2ccc(OC)c(OC)c2)cc1OC` (stereo not given), the GI50 was 13.7 µM in experiment [1]; 13.8 µM in [2]; 23.5 µM in experiment [3]; 19.9 µM in [4]; 31 µM in experiment [5]; 22.7 µM in experiment [6]. Moreover, the results for the GI50 in experiment [7] and in [8] were 24.8 µM and 18.1 µM, respectively. For the same compound, the TGI was 26.6 µM in [1]; 33.5 µM in [2]; above 100 µM in [3]; 50.2 µM in [4]; 75.7 µM in experiment [5]; 62.3 µM in [6]. Also, the values for the TGI in experiment [7] and in [8] were 54.3 µM and 33.9 µM, respectively.
On to `CC/C(=C(\c1ccccc1)c1ccc(OCC[N+](C)(C)C)cc1)c1ccccc1`, for which the TGI was found to be 31.7 µM in experiment [1]; 24.6 µM in [9]; 26.2 µM in experiment [10]; 37.9 µM in experiment [3]; 33.8 µM in experiment [4]; 34.5 µM in [5]. For the same compound, the TGI is 25.7 µM in experiment [6], 23.9 µM in experiment [7] and 24.4 µM in experiment [8].
Turning to `N#CC1=C(N)Oc2c(ccc3ccccc23)C1c1ccccc1Cl` (stereo not given), the GI50 was 0.275 µM in experiment [1]; 2.24 µM in [2]; 0.542 µM in [3]; 0.233 µM in experiment [4]; 0.628 µM in [5]; 0.722 µM in experiment [6]. For the same compound, the GI50 in experiment [7] is 0.163 µM; in experiment [8] it was 11 µM. The TGI in experiment [1] is 5.41 µM; in experiment [2] it was 15.1 µM; in experiment [3], above 57.7 µM; in [4], 11.3 µM; in [5], 43.3 µM; in experiment [6], 13.9 µM. In addition, the figures for the TGI in [7] and in experiment [8] were 2.95 µM and 38.2 µM, respectively.
As for `COc1cc(C2C3=C(COC3=O)N(CCO)c3cc4c(cc32)CCC4)cc(OC)c1OC` (stereo not given), the GI50 in experiment [1] was 0.0919 µM; in experiment [2], 0.862 µM; in experiment [3], 0.118 µM; in [4], 0.0479 µM; in experiment [5], 0.0978 µM; in experiment [6], 0.142 µM. Also, the GI50 in [7] was 0.123 µM. Also, the TGI was 0.409 µM in experiment [1]; above 25.3 µM in [2]; above 32.5 µM in experiment [3]; 0.366 µM in experiment [5]; above 32.5 µM in experiment [6]; above 32.5 µM in experiment [7]. The TGI in experiment [8] was above 32.5 µM.
On to `CCOC(=O)C(Cc1ccc(N(CCCl)CCCl)cc1)NC(=O)C(CC(C)C)NC(C)=O` (stereo not given), for which the GI50 is 1.06 µM in experiment [1]; 0.727 µM in experiment [2]; 1.02 µM in experiment [3]; 2.12 µM in experiment [4]; 1.38 µM in [5]; 0.999 µM in experiment [6]. Besides, the GI50 in [7] was 1.94 µM; in experiment [8], 1.69 µM. Also, the TGI in [1] came out at 3.56 µM; in experiment [2] it was 2.82 µM; in experiment [3], 5.18 µM; in [4], 16.6 µM; in [5] it was 4.94 µM; in experiment [6], 10.9 µM. Also, the TGI was 8.4 µM in experiment [7] and 5.66 µM in experiment [8].
As for `N#Cc1c(-c2ccc(Cl)cc2)n([O-])c2ccccc2[n+]1=O`, the GI50 in experiment [1] is 3.03 µM; in experiment [2], 1.61 µM; in experiment [3], 9.68 µM; in experiment [4], 16.4 µM; in experiment [5], 24.8 µM; in experiment [6], 15.5 µM. Also, the values for the GI50 in [7] and in experiment [8] were 21.4 µM and 18.2 µM, respectively. In addition, the TGI was 11.1 µM in experiment [1]; 3.24 µM in experiment [2]; 39 µM in [3]; 30.3 µM in experiment [4]; 72.3 µM in experiment [5]; 37.2 µM in experiment [6]. Besides, the values for the TGI in experiment [7] and in experiment [8] were 39.5 µM and 34.4 µM, respectively.
Regarding `Oc1ccc(-c2nc(-c3ccc4oc5ccc(-c6[nH]c(-c7ccc(O)cc7)nc6-c6ccccc6)cc5c4c3)c(-c3ccccc3)[nH]2)cc1`, the GI50 is 3.85 µM in experiment [1]; 2.19 µM in experiment [2]; 2.23 µM in experiment [3]; 12.2 µM in [4]; 17 µM in experiment [5]; 3.39 µM in experiment [6]. In addition, the values for the GI50 in experiment [7] and in experiment [8] were 8.69 µM and 10.3 µM, respectively. The TGI was above 100 µM in [1]; 6.53 µM in experiment [2]; 5.32 µM in experiment [3]; 45.4 µM in experiment [4]; 42.4 µM in experiment [5]; 27 µM in [6]. For the same compound, the TGI amounted to 67.6 µM in experiment [7] and 33.6 µM in [8].
Turning to `Cn1cnc2nc(Cl)nc(Cl)c21`, the GI50 in [1] is 0.323 µM; in experiment [2] it was 2.09 µM; in [3] it was 3.5 µM; in experiment [4] it was 3.57 µM; in experiment [5], 4.32 µM; in experiment [6] it was 3.37 µM. Further, the GI50 in [7] is 2.48 µM; in [8] it was 7.84 µM. The TGI in experiment [1] was 13.3 µM; in experiment [2] it was 10.5 µM; in experiment [3] it was 26.2 µM; in experiment [4] it was above 100 µM; in [5] it was above 100 µM; in [6], 24.1 µM. Moreover, the values for the TGI in experiment [7] and in experiment [8] were 13.4 µM and 24.8 µM, respectively.
In the case of `COc1cc(OC)c(-c2oc3ccccc3c(=O)c2O)c(OC)c1`, the TGI was above 100 µM in [1]; above 100 µM in experiment [2]; above 100 µM in experiment [3]; above 26.9 µM in experiment [4]; above 100 µM in [5]; above 100 µM in experiment [6]. The TGI in [7] and in [8] was above 100 µM in each case.
